Data from the CheMixHub viscosity set.
Where “and” joins values, the source holds several entries; their conditions need not be identical. Equal entries are not always repeated. ± gives the uncertainty stated by the source.

Assay: xn = mol fraction of the nth substance listed

CN(C)C=O + O
viscosity (293.15 K, 101 kPa, x1 = 0.0254): 1.471 ± 0.26 mPa·s | viscosity (293.15 K, 101 kPa, x1 = 0.0555): 1.784 ± 0.29 mPa·s | viscosity (293.15 K, 101 kPa, x1 = 0.0915): 2.173 ± 0.34 mPa·s | viscosity (293.15 K, 101 kPa, x1 = 0.1355): 2.435 ± 0.36 mPa·s | viscosity (293.15 K, 101 kPa, x1 = 0.1904): 2.755 ± 0.4 mPa·s | viscosity (293.15 K, 101 kPa, x1 = 0.2608): 2.969 ± 0.42 mPa·s | viscosity (293.15 K, 101 kPa, x1 = 0.2921): 2.981 ± 0.43 mPa·s | viscosity (293.15 K, 101 kPa, x1 = 0.304): 3.018 ± 0.43 mPa·s | viscosity (293.15 K, 101 kPa, x1 = 0.3199): 2.973 ± 0.42 mPa·s | viscosity (293.15 K, 101 kPa, x1 = 0.3544): 2.937 ± 0.42 mPa·s | viscosity (293.15 K, 101 kPa, x1 = 0.4137): 2.705 ± 0.39 mPa·s | viscosity (293.15 K, 101 kPa, x1 = 0.4848): 2.515 ± 0.37 mPa·s | viscosity (293.15 K, 101 kPa, x1 = 0.5714): 2.002 ± 0.32 mPa·s | viscosity (293.15 K, 101 kPa, x1 = 0.6792): 1.674 ± 0.28 mPa·s | viscosity (293.15 K, 101 kPa, x1 = 0.8171): 1.276 ± 0.24 mPa·s | viscosity (293.15 K, 101 kPa, x2 = 0.1): 0.9649 ± 0.0065 mPa·s and 0.9619 ± 0.013 mPa·s | viscosity (293.15 K, 101 kPa, x2 = 0.2): 1.129 ± 0.0076 mPa·s and 1.125 ± 0.015 mPa·s and 1.65 ± 0.4 mPa·s | viscosity (293.15 K, 101 kPa, x2 = 0.3): 1.357 ± 0.009 mPa·s and 1.351 ± 0.018 mPa·s | viscosity (293.15 K, 101 kPa, x2 = 0.4): 1.674 ± 0.011 mPa·s and 1.67 ± 0.022 mPa·s and 2.25 ± 0.53 mPa·s | viscosity (293.15 K, 101 kPa, x2 = 0.5): 2.177 ± 0.014 mPa·s and 2.088 ± 0.028 mPa·s | viscosity (293.15 K, 101 kPa, x2 = 0.6): 2.564 ± 0.017 mPa·s and 2.556 ± 0.034 mPa·s | viscosity (293.15 K, 101 kPa, x2 = 0.7): 2.885 ± 0.018 mPa·s and 2.875 ± 0.038 mPa·s | viscosity (293.15 K, 101 kPa, x2 = 0.8): 2.761 ± 0.018 mPa·s and 2.754 ± 0.036 mPa·s | viscosity (293.15 K, 101 kPa, x2 = 0.9): 2.019 ± 0.013 mPa·s and 2.015 ± 0.027 mPa·s | viscosity (293.15 K, 101 kPa, x2 = 0.92): 1.818 ± 0.012 mPa·s and 1.813 ± 0.024 mPa·s | viscosity (293.15 K, 101 kPa, x2 = 0.94): 1.622 ± 0.011 mPa·s and 1.616 ± 0.021 mPa·s | viscosity (293.15 K, 101 kPa, x2 = 0.96): 1.408 ± 0.0094 mPa·s and 1.403 ± 0.019 mPa·s | viscosity (293.15 K, 101 kPa, x2 = 0.98): 1.203 ± 0.0081 mPa·s and 1.2 ± 0.016 mPa·s | viscosity (293.15 K, 101.33 kPa, x1 = 0.0217): 1.225 ± 0.038 mPa·s | viscosity (293.15 K, 101.33 kPa, x1 = 0.0466): 1.483 ± 0.045 mPa·s | viscosity (293.15 K, 101.33 kPa, x1 = 0.0989): 2.011 ± 0.06 mPa·s | viscosity (293.15 K, 101.33 kPa, x1 = 0.1478): 2.357 ± 0.07 mPa·s | viscosity (293.15 K, 101.33 kPa, x1 = 0.196): 2.65 ± 0.078 mPa·s | viscosity (293.15 K, 101.33 kPa, x1 = 0.2481): 2.888 ± 0.084 mPa·s | viscosity (293.15 K, 101.33 kPa, x1 = 0.2859): 2.908 ± 0.085 mPa·s | viscosity (293.15 K, 101.33 kPa, x1 = 0.3728): 2.707 ± 0.08 mPa·s | viscosity (293.15 K, 101.33 kPa, x1 = 0.4919): 2.262 ± 0.067 mPa·s | viscosity (293.15 K, 101.33 kPa, x1 = 0.5936): 1.748 ± 0.053 mPa·s | viscosity (293.15 K, 101.33 kPa, x1 = 0.7991): 1.184 ± 0.037 mPa·s | viscosity (293.15 K, 101.33 kPa, x1 = 0.8795): 1.073 ± 0.034 mPa·s | viscosity (298.15 K, 101 kPa, x2 = 0.1): 0.9018 ± 0.0061 mPa·s and 0.8984 ± 0.012 mPa·s | viscosity (298.15 K, 101 kPa, x2 = 0.3): 1.233 ± 0.0082 mPa·s and 1.232 ± 0.016 mPa·s | viscosity (298.15 K, 101 kPa, x2 = 0.4): 1.508 ± 0.01 mPa·s and 1.503 ± 0.02 mPa·s | viscosity (298.15 K, 101 kPa, x2 = 0.5): 1.853 ± 0.012 mPa·s and 1.847 ± 0.025 mPa·s | viscosity (298.15 K, 101 kPa, x2 = 0.6): 2.226 ± 0.015 mPa·s and 2.225 ± 0.029 mPa·s | viscosity (298.15 K, 101 kPa, x2 = 0.7): 2.477 ± 0.016 mPa·s and 2.469 ± 0.032 mPa·s | viscosity (298.15 K, 101 kPa, x2 = 0.8): 2.345 ± 0.031 mPa·s | viscosity (298.15 K, 101 kPa, x2 = 0.9): 1.746 ± 0.011 mPa·s and 1.744 ± 0.023 mPa·s | viscosity (298.15 K, 101 kPa, x2 = 0.92): 1.583 ± 0.01 mPa·s and 1.576 ± 0.021 mPa·s | viscosity (298.15 K, 101 kPa, x2 = 0.94): 1.412 ± 0.0094 mPa·s and 1.408 ± 0.019 mPa·s | viscosity (298.15 K, 101 kPa, x2 = 0.96): 1.234 ± 0.016 mPa·s | viscosity (298.15 K, 101 kPa, x2 = 0.98): 1.065 ± 0.0072 mPa·s and 1.063 ± 0.014 mPa·s | viscosity (302.15 K, 101 kPa, x1 = 0.0254): 1.266 ± 0.23 mPa·s | viscosity (302.15 K, 101 kPa, x1 = 0.0555): 1.535 ± 0.26 mPa·s | viscosity (302.15 K, 101 kPa, x1 = 0.0915): 1.856 ± 0.3 mPa·s | viscosity (302.15 K, 101 kPa, x1 = 0.1355): 2.071 ± 0.32 mPa·s | viscosity (302.15 K, 101 kPa, x1 = 0.1904): 2.333 ± 0.35 mPa·s | viscosity (302.15 K, 101 kPa, x1 = 0.2608): 2.542 ± 0.38 mPa·s | viscosity (302.15 K, 101 kPa, x1 = 0.2921): 2.58 ± 0.38 mPa·s | viscosity (302.15 K, 101 kPa, x1 = 0.304): 2.604 ± 0.38 mPa·s | viscosity (302.15 K, 101 kPa, x1 = 0.3199): 2.572 ± 0.38 mPa·s | viscosity (302.15 K, 101 kPa, x1 = 0.3544): 2.526 ± 0.37 mPa·s | viscosity (302.15 K, 101 kPa, x1 = 0.4137): 2.327 ± 0.35 mPa·s | viscosity (302.15 K, 101 kPa, x1 = 0.4848): 2.201 ± 0.34 mPa·s | viscosity (302.15 K, 101 kPa, x1 = 0.5714): 1.812 ± 0.3 mPa·s | viscosity (302.15 K, 101 kPa, x1 = 0.6792): 1.533 ± 0.26 mPa·s | viscosity (302.15 K, 101 kPa, x1 = 0.8171): 1.176 ± 0.22 mPa·s | viscosity (303.15 K, 101 kPa, x2 = 0.1): 0.8402 ± 0.0058 mPa·s and 0.8389 ± 0.011 mPa·s | viscosity (303.15 K, 101 kPa, x2 = 0.2): 0.9593 ± 0.0065 mPa·s and 0.9567 ± 0.013 mPa·s | viscosity (303.15 K, 101 kPa, x2 = 0.3): 1.137 ± 0.0076 mPa·s and 1.122 ± 0.015 mPa·s | viscosity (303.15 K, 101 kPa, x2 = 0.4): 1.354 ± 0.009 mPa·s and 1.352 ± 0.018 mPa·s | viscosity (303.15 K, 101 kPa, x2 = 0.5): 1.641 ± 0.011 mPa·s and 1.639 ± 0.022 mPa·s | viscosity (303.15 K, 101 kPa, x2 = 0.6): 1.943 ± 0.013 mPa·s and 1.939 ± 0.026 mPa·s | viscosity (303.15 K, 101 kPa, x2 = 0.7): 2.134 ± 0.014 mPa·s and 2.132 ± 0.028 mPa·s | viscosity (303.15 K, 101 kPa, x2 = 0.8): 2.026 ± 0.013 mPa·s and 2.02 ± 0.027 mPa·s
